Assay results: US5763577A, “Substituted tetra- and pentapeptide inhibitors of protein: farnesyl transferase” (Warner-Lambert Company, priority 1996, dated 1998)
Structures can show the parent of a compound that is named as a salt. Non-standard residues stand in square brackets, D forms with d. Residues, ends and D or L forms follow the SMILES beside them. *: point of attachment. Cbz = O=C(OCc1ccccc1)*; Bn = c1ccc(C*)cc1

Target: T1, rat brain farnesyl protein transferase (Rattus norvegicus, UniProt Q02293+Q04631)
T1 construct: 40-fold purified rat brain farnesyl protein transferase; from tissue; host or cells: rat brain
Experiment: PFT inhibitory activity assay (3H-farnesyl pyrophosphate, biotinyl peptide, streptavidin beads)
Assay type: biochemical
Conditions: 30 mM potassium phosphate buffer pH 7.4; FPP 0.12 μM; (biotinyl)-Ahe-Tyr-Lys-Cys-Val-Ile-Met 0.1 μM; 37° C, 30 minutes
Method: The PFT inhibitory activity of compounds of Formula I was assayed in 30 mM potassium phosphate buffer, pH 7.4, containing 7 mM DTT, 1.2 MM MgCl2, 0.1 mM leupeptin, 0.1 mM pepstatin, and 0.2 mM phenylmethylsulfonyl fluoride. Assays were performed in 96 well plates (Wallec) and employed solutions composed of varying concentrations of a compound of Formula I in 100% DMSO. Upon addition of both substrates, radiolabeled farnesyl pyrophosphate ([1-^3 H], specific activity 15-30 Ci/mmol, final concentration 0.12 μM) and (biotinyl)-Ahe-Tyr-Lys-Cys-Val-Ile-Met peptide (final concentration 0.1 μM), the Seq ID NO:59 enzyme reaction was started by addition of 40-fold purified rat brain farnesyl protein transferase. After incubation at 37° C for 30 minutes, the reaction was terminated by diluting the reaction 2.5-fold with a stop buffer containing 1.5M magnesium acetate, 0.2M H3 PO4, 0.5% BSA, and strepavidin beads (Amersham) at a concentration of 1.3 mg/mL. After allowing the plate to settle for 30 minutes at room temperature, radioactivity was quantitated on a microBeta counter (model 1450, Wallec).

Row | SMILES | IC50 [nM]
1 | C[C@@H](NC(=O)[C@H](COCc1ccccc1)NC(=O)[C@H](Cc1ccc(OCc2ccccc2)cc1)NC(=O)[C@H](Cc1c[nH]cn1)NC(=O)OCc1ccccc1)C(=O)O [Cbz--His--Tyr(OBn)--Ser(OBn)--DAla--OH, N-[N-[N-[N-[(Phenylmethoxy)carbonyl]-L-histidyl]-O-(phenylmethyl)-L-tyrosyl]-O-(phenylmethyl)-L-seryl]-D-alanine, monohydrochloride] (Cbz-HY(Bn)S(Bn)[dA]-OH) | 404
2 | COC(=O)[C@@H](C)NC(=O)[C@H](COCc1ccccc1)NC(=O)[C@H](Cc1ccc(OCc2ccccc2)cc1)NC(=O)[C@H](Cc1c[nH]cn1)NC(=O)OCc1ccccc1 [Cbz--His--Tyr(OBn)--Ser(OBn)--DAla--OM2, N-[N-[N-[N-[(Phenylmethoxy)carbonyl]-L-histidyl]-O-(phenylmethyl)-L-tyrosyl]-O-(phenylmethyl)-L-seryl]-D-alanine, methyl ester] (Cbz-HY(Bn)S(Bn)[dA]-OMe) | 142
